Measured values as given in patent EP4722195A1, “PH-SENSITIVE CATIONIC LIPID AND LIPID NANOPARTICLES” (National University Corporation Hokkaido University, priority 2023, dated 2024).

Tests used:
spleen = assay: Fluc activity in the spleen of mice administered Fluc mRNA-loaded lipid nanoparticles; type: in vivo, BALB/c mice; details: Example 22, Fig. 1; TxT/DSPC/chol/PEG-DMG=50/15/35/1.5 (mol%); 0.1 mg mRNA/kg intravenous; six hours after administration; comparison among TxT lipids
Method: Lipid nanoparticles were administered to mice by intravenous injection into the tail vein using a 27G needle. Unless otherwise specified, BALB/c mice (4 to 5 weeks old, female) were used.
First, BALB/c mice (female, 4 weeks old) were intravenously injected with lipid nanoparticles encapsulating Fluc mRNA (Fluc mRNA-loaded lipid nanoparticles) at a dose of 0.1 mg mRNA/kg. Six hours after intravenous injection, the mice were euthanized, each tissue was collected, frozen in liquid nitrogen, and stored at -80°C. The tissues were homogenized in passive lysis buffer (manufactured by Promega) using a bead-type cell disruptor (Micro Smash MS-100R, manufactured by TOMY Seiko). Tissue debris was removed by centrifugation, and the supernatant was collected. Fluc activity in the supernatant was measured using the Luciferase Assay System (E1500, manufactured by Promega) according to the manufacturer's protocol. Luminescence was measured using a luminometer (Luminescencer-PSN, manufactured by ATTO). Protein concentration was determined using a commercially available assay kit (BCA Protein Assay Kit, manufactured by Pierce). Fluc activity was expressed as relative light units (RLU) per mg of protein. […]

[1] = system: proprotein convertase subtilisin/kexin type 9 (PCSK9); assay: PCSK9-targeted genome editing in mice, serum PCSK9 (ELISA); type: in vivo, Balb/c mice; details: Example 34, Fig. 13
Method: Specifically, an RNA solution was first prepared to contain Cas9-mRNA (TriLink, 5moU-modified) and gRNA targeting proprotein convertase subtilisin/kexin type 9 (PCSK9) (SEQ ID NO: 3) at a mass ratio of 1:2 (N/P = 6.0). Using this RNA solution, in the same manner as Example 32, lipid nanoparticles encapsulating Cas9-mRNA and PCSK9-gRNA and having a composition of TxT-5-SA14/DSPC/chol/PEG-DMG = 50/3/47/1.5 (mol%) were prepared (lipid nanoparticles for PCSK9-targeted genome editing). […]
Subsequently, the prepared lipid nanoparticles for PCSK9-targeted genome editing were administered via tail vein injection to female Balb/c mice (4 weeks old) at doses of 0.3, 1.0, and 2.0 mg RNA/kg. […] The collected blood was allowed to stand at room temperature for 1 hour, followed by centrifugation at 4°C, 1,000 × g for 10 minutes. The supernatant was collected to obtain serum. The concentration of PCSK9 in the serum was measured using a commercially available ELISA kit (Mouse/Rat PCSK9 ELISA Kit, CircuLex). Calibration samples were prepared by serial dilution from 6 ng/mL to obtain solutions of 3, 1.5, 0.75, 0.375, 0.188, and 0.094 ng/mL, each in 300 µL volumes. Serum samples were diluted 100-fold. […] Finally, 100 µL of Stop Solution (CircuLex) was added, and absorbance at 450 nm and 540 nm was measured using a spectrophotometer (Varioskan Lux, Thermo Fisher Scientific).

Compound | Fluc activity in the spleen (spleen) | PCSK9 knockout efficiency versus dose ([1]; 0.3, 1.0, and 2.0 mg RNA/kg) | PCSK9 knockout activity ([1]; dose of 2.0 mg RNA/kg tail vein, serum PCSK9 ten days after administration, N = 3 to 6)
CCCCCCC(CCCC)CNC(=O)CCCC(=O)OCC(COC(=O)CCCC(=O)NCC(CCCC)CCCCCC)(COC(=O)CCCC(=O)NCC(CCCC)CCCCCC)NC(=O)CCN1CCCCC1 (stereo not drawn) [TxT-5-5A12β, 2-(((5-((2-butyloctyl)amino)-5-oxopentanoyl)oxy)methyl)-2-(3-(piperidin-1-yl)propanamido)propane-1,3-diyl bis(5-((2-butyloctyl)amino)-5-oxopentanoate)] | highest Fluc activity in the spleen |  | 
CCCCCCCN(CCCCCCC)C(=O)CCCC(=O)OCC(COC(=O)CCCC(=O)N(CCCCCCC)CCCCCCC)(COC(=O)CCCC(=O)N(CCCCCCC)CCCCCCC)NC(=O)CCN1CCCCC1 [TxT-5-5A14, 2-(((5-(diheptylamino)-5-oxopentanoyl)oxy)methyl)-2-(3-(piperidin-1-yl)propanamido)propane-1,3-diyl bis(5-(diheptylamino)-5-oxopentanoate)] |  | dose-dependent increase in PCSK9 knockout efficiency | no less than 90%
